Data as given in the NIST ThermoML archive (doi:10.1016/j.tca.2014.06.017).
± gives the expanded uncertainty stated by the source.

Conditions: Crystal; DTA

- Normal melting temperature: 162 ± 11 °C
SMILES: OC[C@@H](O)[C@@H](O)[C@H](O)[C@H](O)CO [D-mannitol]
